Results: patent US6737383B1, “Herbicidal oxadiazolidines” (priority 1999, dated 2004)

Columns and labels:
purple nutsedge = experiment: Test B pre/postemergence purple nutsedge; type: in vivo, Cyperus rotundus
Summary of the method: (§1)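 Test chemicals in a non-phytotoxic solvent mixture with surfactant were sprayed preemergence onto planted seeds and postemergence onto plants 2 to 18 cm tall (1- to 4-leaf stage). After twelve to sixteen days in a greenhouse, injury was visually rated against untreated controls from 0 (no effect) to 10 (complete control).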

wheat = experiment: Test B pre/postemergence wheat; type: in vivo, Triticum aestivum; settings: for Plant response rating, Wheat: Rate 250 g/ha
Summary of the method: as §1

blackgrass = experiment: Test B pre/postemergence blackgrass; type: in vivo, Alopecurus myosuroides
Summary of the method: as §1

morningglory = experiment: Test B pre/postemergence morningglory; type: in vivo, Ipomoea hederacea
Summary of the method: as §1

rape = experiment: Test B pre/postemergence rape; type: in vivo, Brassica napus
Summary of the method: as §1

corn = experiment: Test B pre/postemergence corn; type: in vivo, Zea mays
Summary of the method: as §1

giant foxtail = experiment: Test B pre/postemergence giant foxtail; type: in vivo, Setaria faberii
Summary of the method: as §1

pigweed = experiment: Test B pre/postemergence pigweed; type: in vivo, Amaranthus retroflexus
Summary of the method: as §1

bedstraw = experiment: Test B pre/postemergence bedstraw; type: in vivo, Galium aparine; settings: Preemergence
Summary of the method: as §1

crabgrass = experiment: Test B pre/postemergence crabgrass; type: in vivo, Digitaria sanguinalis
Summary of the method: as §1

sugar beet = experiment: Test B pre/postemergence sugar beet; type: in vivo, Beta vulgaris; settings: for Plant response rating, Sugarbeets: Rate 250 g/ha
Summary of the method: as §1

wild oat = experiment: Test B pre/postemergence wild oat; type: in vivo, Avena fatua; settings: for Plant response rating, Wild oats: Rate 250 g/ha
Summary of the method: as §1

surinam grass = experiment: Test B pre/postemergence surinam grass; type: in vivo, Brachiaria decumbens
Summary of the method: as §1

[1] = Postemergence, Rate 62 g/ha, scale 0 to 10, 0 is no effect, 10 is complete control
[2] = Postemergence, Rate 125 g/ha, scale of 0 to 10 where 0 is no effect and 10 is complete control
[3] = Postemergence, Rate 250 g/ha, scale 0 to 10, 0 no effect, 10 complete control
[4] = Preemergence, Rate 62 g/ha, scale 0 to 10 (0 no effect, 10 complete control)
[5] = Preemergence, Rate 125 g/ha, scale 0 to 10 (0 no effect, 10 complete control)
[6] = Preemergence, Rate 250 g/ha, scale of 0 to 10 where 0 is no effect and 10 is complete control
[7] = Rate 500 g/ha, Postemergence, scale 0 to 10, 0 no effect, 10 complete control
[8] = Preemergence, Rate 125 g/ha, 0 is no effect, 10 is complete control
[9] = Preemergence, scale of 0 to 10 where 0 is no effect and 10 is complete control
[10] = Preemergence, Rate 500 g/ha, scale 0 (no effect) to 10 (complete control)
[11] = Postemergence, scale 0 to 10, 0 is no effect, 10 is complete control

In the case of `CCCn1c(=O)on(C(=O)N(c2ccc(F)cc2)C(C)C)c1=O` [Compound 91], the “Nutsedge plant response rating” value (purple nutsedge; [1]) is reported as 0, the “Nutsedge plant response rating” value (purple nutsedge; [2]) is reported as 0 and the “Nutsedge plant response rating” value (purple nutsedge; [3]) is reported as 0. The “Nutsedge plant response rating” value (purple nutsedge; [4]) was 0, the “Plant response rating, Nutsedge” value (purple nutsedge; [5]) was 0 and the “Plant response rating, Nutsedge” value (purple nutsedge; [6]) was 0. For the same compound, the “Nutsedge plant response rating” value (purple nutsedge; [7]) was 0, the “Wheat plant response rating” value (wheat; [1]) was 1 and the “Wheat plant response rating” value (wheat; [2]) was 1. For the same compound, the “Wheat plant response rating” value (wheat; [4]) was 3, the “Wheat plant response rating (0 to 10 scale)” value (wheat; [8]) was 4 and the “Plant response rating, Wheat” value (wheat; [9]) was 4. For the same compound, the “Wheat plant response rating” value (wheat; [10]) was 6, the “Plant response rating, Wheat” value (wheat; [11]) was 4 and the “Wheat plant response rating” value (wheat; [7]) was 6. The “Blackgrass plant response rating” value (blackgrass; [1]) was 8, the “Blackgrass plant response rating” value (blackgrass; [2]) was 8 and the “Blackgrass plant response rating” value (blackgrass; [3]) was 8. For the same compound, the “Blackgrass plant response rating” value (blackgrass; [4]) was 10, the “Plant response rating, Blackgrass” value (blackgrass; [5]) was 10 and the “Plant response rating, Blackgrass” value (blackgrass; [6]) was 10. The “Blackgrass plant response rating” value (blackgrass; [10]) was 10, the “Blackgrass plant response rating” value (blackgrass; [7]) was 8 and the “Morningglory plant response rating” value (morningglory; [1]) was 7. For the same compound, the “Morningglory plant response rating” value (morningglory; [2]) was 7, the “Morningglory plant response rating” value (morningglory; [3]) was 8 and the “Morningglory plant response rating” value (morningglory; [4]) was 0. For the same compound, the “Plant response rating, Morningglory” value (morningglory; [5]) was 0, the “Plant response rating, Morningglory” value (morningglory; [6]) was 4 and the “Morningglory plant response rating” value (morningglory; [10]) was 6. For the same compound, the “Morningglory plant response rating” value (morningglory; [7]) was 9, the “Rape plant response rating” value (rape; [1]) was 2 and the “Rape plant response rating” value (rape; [2]) was 3. For the same compound, the “Rape plant response rating” value (rape; [3]) was 4, the “Rape plant response rating” value (rape; [4]) was 7 and the “Plant response rating, Rape” value (rape; [5]) was 8. The “Plant response rating, Rape” value (rape; [6]) was 10, the “Rape plant response rating” value (rape; [10]) was 10 and the “Rape plant response rating” value (rape; [7]) was 10. For the same compound, the “Corn plant response rating” value (corn; [1]) was 2, the “Corn plant response rating” value (corn; [2]) was 2 and the “Corn plant response rating” value (corn; [3]) was 3. For the same compound, the “Corn plant response rating” value (corn; [4]) was 3, the “Plant response rating, Corn” value (corn; [5]) was 6 and the “Plant response rating, Corn” value (corn; [6]) was 8. The “Corn plant response rating” value (corn; [10]) was 9, the “Corn plant response rating” value (corn; [7]) was 5 and the “Giant foxtail plant response rating” value (giant foxtail; [1]) was 8. The “Giant foxtail plant response rating” value (giant foxtail; [2]) was 8, the “Giant foxtail plant response rating” value (giant foxtail; [3]) was 8 and the “Giant foxtail plant response rating” value (giant foxtail; [4]) was 10. For the same compound, the “Plant response rating, Giant foxtail” value (giant foxtail; [5]) was 10, the “Plant response rating, Giant foxtail” value (giant foxtail; [6]) was 10 and the “Giant foxtail plant response rating” value (giant foxtail; [10]) was 10. The “Giant foxtail plant response rating” value (giant foxtail; [7]) was 9, the “Redroot pigweed plant response rating” value (pigweed; [1]) was 1 and the “Redroot pigweed plant response rating” value (pigweed; [2]) was 4. The “Redroot pigweed plant response rating” value (pigweed; [4]) was 6, the “Plant response rating, Redroot pigweed” value (pigweed; [5]) was 9 and the “Plant response rating, Redroot pigweed” value (pigweed; [6]) was 10. For the same compound, the “Redroot pigweed plant response rating” value (pigweed; [10]) was 10, the “Plant response rating, Redroot pigweed” value (pigweed; Rate 250 g/ha, Postemergence, scale 0 to 10, 0 is no effect, 10 is complete control) was 6 and the “Redroot pigweed plant response rating” value (pigweed; [7]) was 8. The “Bedstraw plant response rating” value (bedstraw; Rate 62 g/ha, scale 0 to 10 (0 no effect, 10 complete control)) was 0, the “Plant response rating, Bedstraw” value (bedstraw; Rate 125 g/ha, scale 0 to 10 (0 no effect, 10 complete control)) was 1 and the “Plant response rating, Bedstraw” value (bedstraw; Rate 250 g/ha, scale of 0 to 10 where 0 is no effect and 10 is complete control) was 5. The “Bedstraw plant response rating” value (bedstraw; Rate 500 g/ha, scale 0 (no effect) to 10 (complete control)) was 8, the “Crabgrass plant response rating” value (crabgrass; [1]) was 5 and the “Crabgrass plant response rating” value (crabgrass; [2]) was 9. The “Crabgrass plant response rating” value (crabgrass; [3]) was 9, the “Crabgrass plant response rating” value (crabgrass; [4]) was 10 and the “Plant response rating, Crabgrass” value (crabgrass; [5]) was 10. The “Plant response rating, Crabgrass” value (crabgrass; [6]) was 10, the “Crabgrass plant response rating” value (crabgrass; [10]) was 10 and the “Crabgrass plant response rating” value (crabgrass; [7]) was 9. The “Sugarbeets plant response rating” value (sugar beet; [1]) was 3, the “Sugarbeets plant response rating” value (sugar beet; [2]) was 6 and the “Sugarbeets plant response rating” value (sugar beet; [4]) was 7. The “Sugarbeets plant response rating (0 to 10 scale)” value (sugar beet; [8]) was 7, the “Plant response rating, Sugarbeets” value (sugar beet; [9]) was 9 and the “Sugarbeets plant response rating” value (sugar beet; [10]) was 10. The “Plant response rating, Sugarbeets” value (sugar beet; [11]) was 6, the “Sugarbeets plant response rating” value (sugar beet; [7]) was 6 and the “Wild oats plant response rating” value (wild oat; [1]) was 1. The “Wild oats plant response rating” value (wild oat; [2]) was 2, the “Wild oats plant response rating” value (wild oat; [4]) was 8 and the “Wild oats plant response rating (0 to 10 scale)” value (wild oat; [8]) was 9. For the same compound, the “Plant response rating, Wild oats” value (wild oat; [9]) was 10, the “Wild oats plant response rating” value (wild oat; [10]) was 10 and the “Plant response rating, Wild oats” value (wild oat; [11]) was 3. The “Wild oats plant response rating” value (wild oat; [7]) was 5, the “B. signalgrass plant response rating” value (surinam grass; [1]) was 4 and the “B. signalgrass plant response rating” value (surinam grass; [3]) was 8. For the same compound, the “B. signalgrass plant response rating” value (surinam grass; [4]) was 7, the “Plant response rating, B. signalgrass” value (surinam grass; [5]) was 10 and the “Plant response rating, B. signalgrass” value (surinam grass; [6]) was 10. The “B. signalgrass plant response rating” value (surinam grass; [10]) was 10, the “B. signalgrass plant response rating” value (surinam grass; Rate 125 g/ha, Postemergence, scale 0 to 10, 0 no effect, 10 complete control) was 4 and the “B. signalgrass plant response rating” value (surinam grass; Rate 500 g/ha, Postemergence, scale of 0 to 10 where 0 is no effect and 10 is complete control) was 8.
